# Test results reported in ChEMBL document CHEMBL5729255, “Compounds and uses thereof” (2022).
# Target: T1, Bromodomain-containing protein 9 (Homo sapiens, UniProt Q9H8M2)
# T1 sequence (Q9H8M2 whole entry): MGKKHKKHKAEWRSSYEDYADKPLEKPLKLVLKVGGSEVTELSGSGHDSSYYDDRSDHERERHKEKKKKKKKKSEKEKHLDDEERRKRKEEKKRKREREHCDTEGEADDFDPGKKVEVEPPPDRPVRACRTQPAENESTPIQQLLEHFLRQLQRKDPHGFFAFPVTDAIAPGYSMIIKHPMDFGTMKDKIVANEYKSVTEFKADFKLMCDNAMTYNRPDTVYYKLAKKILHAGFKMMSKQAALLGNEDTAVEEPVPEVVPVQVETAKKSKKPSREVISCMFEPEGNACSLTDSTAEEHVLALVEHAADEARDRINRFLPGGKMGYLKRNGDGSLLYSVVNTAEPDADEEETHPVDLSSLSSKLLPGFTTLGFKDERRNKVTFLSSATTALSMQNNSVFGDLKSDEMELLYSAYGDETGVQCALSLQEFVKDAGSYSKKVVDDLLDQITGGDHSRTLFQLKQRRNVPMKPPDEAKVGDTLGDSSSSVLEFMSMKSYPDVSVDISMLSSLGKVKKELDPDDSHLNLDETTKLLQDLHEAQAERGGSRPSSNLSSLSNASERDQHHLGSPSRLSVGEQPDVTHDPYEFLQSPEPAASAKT
# Test: Bromodomain TR-FRET Competition Binding Assay: A mixture of biotinylated-ligand and SureLight Allophycocyanin-Streptavidin (APC-SA, PerkinElmer AD0201) in 50 mM HEPES (pH 7.4), 50 mM NaCl, 1 mM TCEP (pH 7), 0.01% (v/v) Tween-20, 0.01% (w/v) bovine serum albumin was added to a white 384-well PerkinElmer Proxiplate Plus plate. DMSO or 3-fold serially diluted compounds were then added to the Proxiplate followed by addition of Flag-BRD9. After a 10-minute incubation at room temperature, Eu-W1024 anti-FLAG (PerkinElmer, AD0273) was added. The final reaction miture that contained 3.75 nM biotinylated ligand, 3 nM Flag-BRD9, 7.5 nM SureLight Allophycocyanin-Streptavidin, and 0.2 nM Eu-W1024 anti-FLAG was incubated at room temperature for 90 minutes.
row,SMILES,IC50 [nM]
1,COc1cc(-c2cn(C)c(=O)c3cnccc23)cc(OC)c1CN1CCN(C(=O)CCCCOc2cccc3c2C(=O)N(C2CCC(=O)NC2=O)C3=O)CC1 (stereo not given),< 10
2,COc1cc(-c2cn(C)c(=O)c3cnccc23)cc(OC)c1CN1CCCC(OCc2cn(CCCCOc3ccc4c(c3)C(=O)N(C3CCC(=O)NC3=O)C4=O)nn2)C1 (stereo not given),> 10
3,COc1cc(-c2cn(C)c(=O)c3cnccc23)cc(OC)c1CN1CC(S(=O)(=O)NCCCCNc2ccc3c(c2)C(=O)N(C2CCC(=O)NC2=O)C3=O)C1 (stereo not given),< 10

# More lines, now with the values ahead:
row,IC50 [nM],SMILES
1,> 10,COc1cc(-c2cn(C)c(=O)c3cnccc23)cc(OC)c1CN(C)Cc1cn(-c2ccc3c(c2)C(=O)N(C2CCC(=O)NC2=O)C3=O)nn1 (stereo not given)
2,< 10,COc1cc(-c2cn(C)c(=O)c3cnccc23)cc(OC)c1CN1CC(OCc2cn(CCOc3ccc4c(c3)C(=O)N(C3CCC(=O)NC3=O)C4=O)nn2)C1 (stereo not given)
